Assay results published in publication PMC5861220, “The Cytochrome P450-Mediated Metabolism Alternation of Four Effective Lignans From Schisandra chinensis in Carbon Tetrachloride-Intoxicated Rats and Patients With Advanced Hepatocellular Carcinoma” (Frontiers in Pharmacology, 2018).
Like-named read-outs stand apart in the source and are kept apart here.

How the values were obtained:
[1] = Pharmacokinetics of four lignans in rats after oral SC alcoholic extract; assay type: in vivo, rat; settings: for AUC(0-t) / Cmax / half-life / CL/F / MRT last / Tmax: Sprague-Dawley, rat, plasma, po, 1.5 g/kg/day, oral SC alcoholic extract 1.5 g/kg/day for 4 days, n = 5; for CL/F: read-out: CLz/F (converted); for MRT last: read-out: MRT(0−t); for Tmax: read-out: Tmax
Method: The pharmacokinetic profiles of four lignans were studied in ALI rat after multiple oral administrations of SC alcoholic extract at dose of 1.5 g/kg/day. After the ALI rat was established, SC alcoholic extract suspended in 0.5% sodium carboxymethyl cellulose was given to ALI rats and the control via oral gavage once a day for 4 consecutive days. Before the last dosing, rats were fasted for 12 h while water was taken freely. Blood samples were collected at 0, 0.25, 0.5, 1, 2, 3, 4, 6, 8, 12, 24, 36, and 48 h after the last dosing. A cannula was surgically placed into the jugular vein for collection of blood samples (about 0.1 mL) and blood loss compensation using sterile isotonic saline in the pharmacokinetic study. Plasma was separated by centrifugation and stored at −20°C until analysis. Plasma concentrations of the four lignans were quantified using HPLC-MS analysis developed according to the reported method (Wang et al., [2008]).
Data fitting and pharmacokinetic parameter calculations were carried out using the Winnolin software. Non-compartmental analysis was used to calculate the pharmacokinetic parameters. Parameters, such as AUC and MRT, were calculated using statistical moment method.

[2] = test system: CYP3A; assay: Lignan metabolism in rat liver microsomes with ketoconazole; assay type: in vitro ADME; settings: 5 μM, + Ketoconazole 100 μM (CYP3A)
Method: (§1) The CYP450s involved in the metabolism of schisandrin, schisantherin A, deoxyshisandrin and γ-schisandrin in rat or human liver microsomes were confirmed by comparison of the metabolism ratio before and after the addition of selective inhibitors to CYP450 isozymes. […] The supernate was injected to HPLC-MS for analysis of the four lignans.

[3] = Identification of CYP450 isozymes in lignan metabolism, human liver microsomes (no inhibitor); assay type: in vitro ADME; settings: human liver microsomes 0.5 mg/mL, 5 μM, Control (no inhibitor)
Method: as §1

[4] = test system: CYP3A4/5; assay: Lignan metabolism in human liver microsomes with ketoconazole; assay type: in vitro ADME; settings: 5 μM
Method: as §1

[5] = test system: P-glycoprotein (P-gp); assay: P-gp substrate assessment from Caco-2 transport (Papp and ER); assay type: in vitro ADME; settings: Caco-2 cell monolayer, 5, 10 and 50 μM
Method: Caco-2 cell (passage 38) was used in the transport experiments. Cells were seeded on polycarbonate filters (12 mm diameter, pore size […]) at 1 × 10^5/cm^2. The cell monolayer was formed 21 days post seeding when the transepithelial electrical resistance (TEER) was above 1,000 Ω• cm^2. Three concentration levels (5, 10, and 50 μM) were set for the four schisandra lignans in the study. After preincubation for 1 h at 37°C, the solution of the four lignans was respectively added to the apical (0.4 mL) or basolateral (0.6 mL) chamber for absorptive (AP → BL) and secretive (BL → AP) permeability test. At the specified timepoints (0.5, 1, 1.5 and 2 h), 50 μL samples (n = 3) were withdrawn from receiver chamber, and meanwhile, 50 μL fresh buffer was added. The four lignans were determined by HPLC-MS method.
The apparent permeability coefficient (Papp) in the Caco-2 cell was calculated by the formula Papp = (ΔQ/Δt)/AC0, where ΔQ/Δt is the transport rate (nmol/s), which remained approximately constant in time, A is the well membrane area (0.6 cm^2), and C0 is the initial concentration of the four lignans (μM). The efflux rate (ER) was calculated by the formula ER = Papp (BL → AP)/Papp(AP → BL).

## COc1cc2c(c(OC)c1OC)-c1c(cc(OC)c(OC)c1OC)C[C@](C)(O)[C@@H](C)C2 [Schisandrin, schisandrin]
[1]; CCl4-intoxicated rats
  AUC(0-t): 74700 ± 26300 ng·h/mL
  Cmax: 3980 ± 1530 ng/mL
  half-life: 7.74 ± 1.21 h
  CL/F: 6.61 mL/min/kg
  MRT last: 12.8 ± 0.25 h
  Tmax: 6.2 ± 2.05 h
[1]; Control (normal) rats
  AUC(0-t): 19800 ± 7490 ng·h/mL
  Cmax: 1370 ± 617 ng/mL
  half-life: 10.1 ± 4.12 h
  CL/F: 24.3 mL/min/kg
  MRT last: 11.1 ± 0.97 h
  Tmax: 6 h
[2]
  Metabolism rate: 172.9 ± 8.6 nmol/min/mg
[3]
  Metabolism rate: 263.4 ± 22.5 nmol/min/mg
[4]
  Metabolism rate: 176.7 ± 27.6 nmol/min/mg

## COc1cc2c(c(OC)c1OC)-c1c(cc(OC)c(OC)c1OC)C[C@H](C)[C@@H](C)C2 [Deoxyshisandrin, deoxyshisandrin]
[1]; CCl4 intoxicated rats vs control rats
  Reduction of systemic clearance (CLz/F): ~56%
[1]; CCl4-intoxicated rats
  AUC(0-t): 16400 ± 5020 ng·h/mL
  Cmax: 775 ± 239 ng/mL
  half-life: 13.1 ± 1.78 h
  CL/F: 35.5 mL/min/kg
  MRT last: 16.4 ± 1.02 h
  Tmax: 5.8 ± 2.86 h
[1]; Control (normal) rats
  AUC(0-t): 7880 ± 2810 ng·h/mL
  Cmax: 564 ± 318 ng/mL
  half-life: 11.5 ± 2.08 h
  CL/F: 80 mL/min/kg
  MRT last: 11.7 ± 0.97 h
  Tmax: 5 ± 2.24 h
[2]
  Metabolism rate: 20.0 ± 1.6 nmol/min/mg
[3]
  Metabolism rate: 162.5 ± 15.6 nmol/min/mg
[4]
  Metabolism rate: 38.2 ± 4.3 nmol/min/mg
[5]
  P-glycoprotein (P-gp) substrate classification according to Papp and ER: some efflux trend
